# According to the supplement of paper PMC10307832:
# What was measured:
# Assay in all cases: relative viability (nuclei count vs DMSO), 5 days (fraction); higher = more cells survive
# IU1-47 + Crizotinib = compound: CC1=CC(=C(N1C2=CC=C(C=C2)Cl)C)C(=O)CN3CCCCC3 [IU1-47] + C[C@@H](Oc1cc(-c2cnn(C3CCNCC3)c2)cnc1N)c1c(Cl)ccc(F)c1Cl [Crizotinib] (partner 1 µM)
# Method in brief: (§1)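 Lung cancer cell lines in 1536-well plates were dosed by pin tool the day after seeding, either with one drug alone or with a fixed anchor-drug dose plus five library-drug doses (not always all listed) in √10 steps. After 5 days, cells were fixed and their nuclei stained in one step (final 0.05% Triton X-100, 1% formaldehyde, 1 ug/ml Hoechst), then counted on 4× images. Relative viability is the nuclei count in treated wells divided by that in vehicle wells. Values are medians of duplicate plates.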
# FG-4592 + Trametinib = compound: Cc1nc(C(=O)NCC(=O)O)c(O)c2ccc(Oc3ccccc3)cc12 [FG-4592] + CC(=O)Nc1cccc(-n2c(=O)n(C3CC3)c(=O)c3c(Nc4ccc(I)cc4F)n(C)c(=O)c(C)c32)c1 [Trametinib] (partner 0.02 µM)
# Method in brief: as §1
# FG-4592 + Palbociclib = compound: Cc1nc(C(=O)NCC(=O)O)c(O)c2ccc(Oc3ccccc3)cc12 [FG-4592] + CC(=O)c1c(C)c2cnc(Nc3ccc(N4CCNCC4)cn3)nc2n(C2CCCC2)c1=O [Palbociclib] (partner 0.5 µM)
# Method in brief: as §1
# FG-4592 + Vorinostat = compound: Cc1nc(C(=O)NCC(=O)O)c(O)c2ccc(Oc3ccccc3)cc12 [FG-4592] + O=C(CCCCCCC(=O)Nc1ccccc1)NO [Vorinostat] (partner 1 µM)
# Method in brief: as §1
cell line,measurement,setting,value
UMC-11,relative viability,IU1-47 + Crizotinib; first compound 0.08 µM,0.564
same,relative viability,IU1-47 + Crizotinib; first compound 0.253 µM,0.641
same,relative viability,IU1-47 + Crizotinib; first compound 0.8 µM,0.476
same,relative viability,IU1-47 + Crizotinib; first compound 2.53 µM,0.673
same,relative viability,IU1-47 + Crizotinib; first compound 8 µM,0.574
same,relative viability,FG-4592 + Trametinib; first compound 0.08 µM,0.626
same,relative viability,FG-4592 + Trametinib; first compound 0.253 µM,0.697
same,relative viability,FG-4592 + Trametinib; first compound 0.8 µM,0.504
same,relative viability,FG-4592 + Trametinib; first compound 2.53 µM,0.528
same,relative viability,FG-4592 + Trametinib; first compound 8 µM,0.452
same,relative viability,FG-4592 + Palbociclib; first compound 0.08 µM,0.306
same,relative viability,FG-4592 + Palbociclib; first compound 0.253 µM,0.309
same,relative viability,FG-4592 + Palbociclib; first compound 0.8 µM,0.32
same,relative viability,FG-4592 + Palbociclib; first compound 2.53 µM,0.331
same,relative viability,FG-4592 + Palbociclib; first compound 8 µM,0.285
same,relative viability,FG-4592 + Vorinostat; first compound 0.08 µM,0.363
same,relative viability,FG-4592 + Vorinostat; first compound 0.253 µM,0.333
same,relative viability,FG-4592 + Vorinostat; first compound 0.8 µM,0.361
same,relative viability,FG-4592 + Vorinostat; first compound 2.53 µM,0.511
same,relative viability,FG-4592 + Vorinostat; first compound 8 µM,0.332
